According to ChEMBL document CHEMBL4507319 (2021):

What was measured:
[1] = test system: Tyrosine-protein kinase ABL1 (Homo sapiens), P00519 [F317L]; details: Compound concentration 1000.0 nM
[2] = target: Tyrosine-protein kinase ABL2 (Homo sapiens) (UniProt P42684); details: Compound concentration 1000.0 nM
[3] = target: Cyclin-dependent kinase 19 (Homo sapiens) (UniProt Q9BWU1); details: Compound concentration 1000.0 nM
[4] = target: Cyclin-dependent kinase-like 1 (Homo sapiens) (UniProt Q00532); details: Compound concentration 1000.0 nM
[5] = target: Casein kinase I isoform alpha-like (Homo sapiens) (UniProt Q8N752); details: Compound concentration 1000.0 nM
[6] = target: T1, Serine/threonine-protein kinase 17B (Homo sapiens) (UniProt O94768); details: Compound concentration 1000.0 nM
T1 sequence (whole entry): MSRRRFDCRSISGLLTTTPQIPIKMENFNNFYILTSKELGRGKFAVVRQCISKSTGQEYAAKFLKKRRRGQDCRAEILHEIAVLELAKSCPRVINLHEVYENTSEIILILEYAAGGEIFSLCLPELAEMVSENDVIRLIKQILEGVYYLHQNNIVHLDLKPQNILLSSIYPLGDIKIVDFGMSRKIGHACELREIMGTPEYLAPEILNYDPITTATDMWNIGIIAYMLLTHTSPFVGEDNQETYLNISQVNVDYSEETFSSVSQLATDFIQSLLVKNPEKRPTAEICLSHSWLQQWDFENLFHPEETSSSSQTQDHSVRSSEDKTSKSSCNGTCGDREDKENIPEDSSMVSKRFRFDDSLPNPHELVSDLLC

[7] = target: Vascular endothelial growth factor receptor 1 (Homo sapiens) (UniProt P17948); details: Compound concentration 1000.0 nM
[8] = target: Interleukin-1 receptor-associated kinase 3 (Homo sapiens) (UniProt Q9Y616); details: Compound concentration 1000.0 nM
[9] = target: Mitogen-activated protein kinase 10 (Homo sapiens) (UniProt P53779); details: Compound concentration 1000.0 nM
[10] = target: T2, Mitogen-activated protein kinase kinase kinase 2 (Homo sapiens) (UniProt Q9Y2U5); details: Compound concentration 1000.0 nM
T2 sequence (whole entry): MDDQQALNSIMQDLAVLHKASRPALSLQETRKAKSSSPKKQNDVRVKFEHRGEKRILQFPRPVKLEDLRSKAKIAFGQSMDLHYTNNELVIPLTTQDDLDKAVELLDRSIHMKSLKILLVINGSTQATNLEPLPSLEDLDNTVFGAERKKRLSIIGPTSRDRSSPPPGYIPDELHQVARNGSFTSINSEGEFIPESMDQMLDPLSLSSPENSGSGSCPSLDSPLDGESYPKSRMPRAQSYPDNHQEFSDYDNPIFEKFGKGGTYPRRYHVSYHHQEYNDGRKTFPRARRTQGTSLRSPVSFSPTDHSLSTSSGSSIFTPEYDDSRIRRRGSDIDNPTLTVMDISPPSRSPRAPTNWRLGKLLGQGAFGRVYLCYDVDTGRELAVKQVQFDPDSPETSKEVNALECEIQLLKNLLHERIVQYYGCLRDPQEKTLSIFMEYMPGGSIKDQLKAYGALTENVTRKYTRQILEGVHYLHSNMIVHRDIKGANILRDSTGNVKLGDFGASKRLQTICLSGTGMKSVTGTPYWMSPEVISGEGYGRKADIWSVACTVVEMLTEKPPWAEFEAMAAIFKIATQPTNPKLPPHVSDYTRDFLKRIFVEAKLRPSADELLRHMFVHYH

[11] = target: Microtubule-associated serine/threonine-protein kinase 1 (Homo sapiens) (UniProt Q9Y2H9); details: Compound concentration 1000.0 nM
[12] = target: Serine/threonine-protein kinase PAK 1 (Homo sapiens) (UniProt Q13153); details: Compound concentration 1000.0 nM
[13] = target: T3, Serine/threonine-protein kinase Sgk2 (Homo sapiens) (UniProt Q9HBY8); details: Compound concentration 1000.0 nM
T3 sequence (whole entry): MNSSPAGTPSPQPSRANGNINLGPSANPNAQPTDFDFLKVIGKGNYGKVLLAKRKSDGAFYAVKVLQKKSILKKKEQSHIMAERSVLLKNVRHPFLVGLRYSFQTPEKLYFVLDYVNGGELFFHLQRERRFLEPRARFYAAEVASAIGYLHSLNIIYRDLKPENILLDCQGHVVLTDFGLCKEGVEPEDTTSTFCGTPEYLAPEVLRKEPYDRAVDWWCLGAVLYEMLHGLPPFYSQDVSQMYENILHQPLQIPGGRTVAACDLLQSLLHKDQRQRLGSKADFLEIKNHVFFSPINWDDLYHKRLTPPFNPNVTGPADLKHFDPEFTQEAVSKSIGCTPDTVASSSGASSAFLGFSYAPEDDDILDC

[14] = target: TGF-beta receptor type-2 (Homo sapiens) (UniProt P37173); details: Compound concentration 1000.0 nM
[15] = target: Vascular endothelial growth factor receptor 2 (Homo sapiens) (UniProt P35968); details: Compound concentration 1000.0 nM
[16] = target: Mitogen-activated protein kinase kinase kinase 20 (Homo sapiens) (UniProt Q9NYL2); details: Compound concentration 1000.0 nM
[17] = target: 5-hydroxytryptamine receptor 6 (Homo sapiens) (UniProt P50406); details: Compound concentration 10.0 uM
Chain of 5-hydroxytryptamine receptor 6 (Homo sapiens) (P50406 whole entry): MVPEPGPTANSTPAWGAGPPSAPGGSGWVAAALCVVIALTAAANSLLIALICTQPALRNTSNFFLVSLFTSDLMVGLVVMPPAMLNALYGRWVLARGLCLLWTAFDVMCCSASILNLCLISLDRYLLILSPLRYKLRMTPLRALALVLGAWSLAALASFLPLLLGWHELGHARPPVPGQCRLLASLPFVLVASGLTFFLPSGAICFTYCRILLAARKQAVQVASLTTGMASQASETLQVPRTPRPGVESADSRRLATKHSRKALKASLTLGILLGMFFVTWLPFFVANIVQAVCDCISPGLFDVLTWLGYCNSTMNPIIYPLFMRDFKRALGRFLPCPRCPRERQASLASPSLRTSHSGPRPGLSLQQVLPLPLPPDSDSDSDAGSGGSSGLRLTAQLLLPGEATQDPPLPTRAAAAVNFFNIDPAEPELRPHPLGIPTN

Chain of Mitogen-activated protein kinase 10 (Homo sapiens) (P53779 whole entry): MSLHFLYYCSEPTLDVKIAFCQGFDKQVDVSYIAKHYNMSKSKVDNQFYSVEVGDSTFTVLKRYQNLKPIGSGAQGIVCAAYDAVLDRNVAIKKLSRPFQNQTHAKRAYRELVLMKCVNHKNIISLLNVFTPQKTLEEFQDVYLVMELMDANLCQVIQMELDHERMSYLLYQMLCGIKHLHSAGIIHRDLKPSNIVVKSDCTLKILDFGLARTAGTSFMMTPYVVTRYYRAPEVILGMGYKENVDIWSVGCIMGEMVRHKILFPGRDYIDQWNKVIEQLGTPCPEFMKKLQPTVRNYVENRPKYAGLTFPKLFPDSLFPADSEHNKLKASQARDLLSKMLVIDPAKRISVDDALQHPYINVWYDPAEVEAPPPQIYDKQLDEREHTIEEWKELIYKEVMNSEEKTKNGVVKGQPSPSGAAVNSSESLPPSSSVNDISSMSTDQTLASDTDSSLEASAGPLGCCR
Chain of Cyclin-dependent kinase 19 (Homo sapiens) (Q9BWU1 whole entry): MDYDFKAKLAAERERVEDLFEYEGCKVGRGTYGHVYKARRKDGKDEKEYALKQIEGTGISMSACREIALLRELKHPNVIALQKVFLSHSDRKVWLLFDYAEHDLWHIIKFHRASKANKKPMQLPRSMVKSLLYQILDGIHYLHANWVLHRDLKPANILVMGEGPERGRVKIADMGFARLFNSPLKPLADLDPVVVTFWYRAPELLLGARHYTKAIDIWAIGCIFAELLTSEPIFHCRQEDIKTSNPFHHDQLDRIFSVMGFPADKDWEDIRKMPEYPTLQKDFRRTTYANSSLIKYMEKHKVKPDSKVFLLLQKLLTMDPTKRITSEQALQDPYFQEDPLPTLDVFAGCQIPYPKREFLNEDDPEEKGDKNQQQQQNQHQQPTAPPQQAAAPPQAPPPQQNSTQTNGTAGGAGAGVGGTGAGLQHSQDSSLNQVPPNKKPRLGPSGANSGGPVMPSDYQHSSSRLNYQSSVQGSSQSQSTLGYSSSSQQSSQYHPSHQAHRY
Chain of Tyrosine-protein kinase ABL1 (Homo sapiens), P00519 [F317L] (P00519 whole entry F317L): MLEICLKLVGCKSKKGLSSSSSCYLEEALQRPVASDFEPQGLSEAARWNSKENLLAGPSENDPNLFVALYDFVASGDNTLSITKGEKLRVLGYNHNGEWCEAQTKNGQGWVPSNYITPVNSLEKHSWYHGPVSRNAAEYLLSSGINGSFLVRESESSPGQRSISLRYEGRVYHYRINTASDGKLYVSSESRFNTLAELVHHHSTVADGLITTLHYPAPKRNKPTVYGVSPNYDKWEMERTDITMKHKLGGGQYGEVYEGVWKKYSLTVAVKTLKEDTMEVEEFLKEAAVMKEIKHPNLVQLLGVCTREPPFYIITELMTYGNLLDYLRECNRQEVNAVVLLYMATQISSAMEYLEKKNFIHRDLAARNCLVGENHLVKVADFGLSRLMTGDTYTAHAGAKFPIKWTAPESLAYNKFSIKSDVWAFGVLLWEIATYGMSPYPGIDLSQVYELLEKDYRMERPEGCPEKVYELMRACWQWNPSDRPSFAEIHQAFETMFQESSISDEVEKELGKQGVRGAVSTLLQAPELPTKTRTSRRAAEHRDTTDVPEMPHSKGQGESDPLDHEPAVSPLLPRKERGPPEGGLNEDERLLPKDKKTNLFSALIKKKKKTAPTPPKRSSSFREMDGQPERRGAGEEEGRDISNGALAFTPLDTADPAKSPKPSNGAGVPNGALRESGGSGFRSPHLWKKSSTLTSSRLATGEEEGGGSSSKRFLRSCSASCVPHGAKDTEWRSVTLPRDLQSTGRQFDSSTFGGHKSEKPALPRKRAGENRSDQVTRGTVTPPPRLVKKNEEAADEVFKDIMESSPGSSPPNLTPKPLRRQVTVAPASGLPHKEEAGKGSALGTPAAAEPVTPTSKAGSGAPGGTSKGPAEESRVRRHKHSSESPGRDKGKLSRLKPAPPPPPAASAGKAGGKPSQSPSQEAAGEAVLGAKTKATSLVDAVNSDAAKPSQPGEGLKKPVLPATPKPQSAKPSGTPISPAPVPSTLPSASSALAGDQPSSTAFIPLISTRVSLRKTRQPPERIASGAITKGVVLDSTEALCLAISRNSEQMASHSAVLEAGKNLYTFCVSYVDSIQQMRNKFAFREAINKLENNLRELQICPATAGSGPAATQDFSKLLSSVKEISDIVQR
Chain of Vascular endothelial growth factor receptor 2 (Homo sapiens) (P35968 whole entry): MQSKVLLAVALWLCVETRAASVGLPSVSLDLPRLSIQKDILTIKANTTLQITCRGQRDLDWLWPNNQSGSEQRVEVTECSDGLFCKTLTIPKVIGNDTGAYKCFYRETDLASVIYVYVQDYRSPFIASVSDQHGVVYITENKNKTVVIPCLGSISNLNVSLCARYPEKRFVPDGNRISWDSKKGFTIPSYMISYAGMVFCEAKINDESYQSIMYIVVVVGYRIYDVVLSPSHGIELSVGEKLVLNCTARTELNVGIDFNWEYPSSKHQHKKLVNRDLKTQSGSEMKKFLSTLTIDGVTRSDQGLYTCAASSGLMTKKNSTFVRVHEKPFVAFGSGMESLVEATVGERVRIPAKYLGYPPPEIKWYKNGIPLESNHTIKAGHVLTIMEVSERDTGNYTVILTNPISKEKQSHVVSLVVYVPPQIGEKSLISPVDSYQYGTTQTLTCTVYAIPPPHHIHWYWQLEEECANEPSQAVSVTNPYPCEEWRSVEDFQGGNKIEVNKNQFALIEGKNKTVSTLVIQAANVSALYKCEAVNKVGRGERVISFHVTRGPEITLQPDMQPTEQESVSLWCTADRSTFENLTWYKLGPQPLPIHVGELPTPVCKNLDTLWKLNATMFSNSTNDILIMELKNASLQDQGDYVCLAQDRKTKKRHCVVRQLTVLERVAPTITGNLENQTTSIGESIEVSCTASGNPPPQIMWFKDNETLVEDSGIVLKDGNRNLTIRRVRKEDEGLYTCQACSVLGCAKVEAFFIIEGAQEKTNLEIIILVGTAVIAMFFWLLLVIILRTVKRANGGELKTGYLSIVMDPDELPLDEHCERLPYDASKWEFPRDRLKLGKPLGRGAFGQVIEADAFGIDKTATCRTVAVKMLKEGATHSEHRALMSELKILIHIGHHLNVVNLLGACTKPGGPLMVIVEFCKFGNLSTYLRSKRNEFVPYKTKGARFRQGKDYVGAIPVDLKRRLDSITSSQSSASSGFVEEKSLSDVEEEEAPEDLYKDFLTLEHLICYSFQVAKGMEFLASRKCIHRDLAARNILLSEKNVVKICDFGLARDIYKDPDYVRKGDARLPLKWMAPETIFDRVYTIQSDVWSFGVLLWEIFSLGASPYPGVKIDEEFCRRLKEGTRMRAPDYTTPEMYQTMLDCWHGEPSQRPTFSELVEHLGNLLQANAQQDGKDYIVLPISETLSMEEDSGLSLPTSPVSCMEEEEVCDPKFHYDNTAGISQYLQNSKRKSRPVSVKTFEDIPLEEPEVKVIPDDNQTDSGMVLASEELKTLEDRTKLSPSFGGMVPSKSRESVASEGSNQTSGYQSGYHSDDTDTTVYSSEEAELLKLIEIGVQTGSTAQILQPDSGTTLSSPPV
Chain of Interleukin-1 receptor-associated kinase 3 (Homo sapiens) (Q9Y616 whole entry): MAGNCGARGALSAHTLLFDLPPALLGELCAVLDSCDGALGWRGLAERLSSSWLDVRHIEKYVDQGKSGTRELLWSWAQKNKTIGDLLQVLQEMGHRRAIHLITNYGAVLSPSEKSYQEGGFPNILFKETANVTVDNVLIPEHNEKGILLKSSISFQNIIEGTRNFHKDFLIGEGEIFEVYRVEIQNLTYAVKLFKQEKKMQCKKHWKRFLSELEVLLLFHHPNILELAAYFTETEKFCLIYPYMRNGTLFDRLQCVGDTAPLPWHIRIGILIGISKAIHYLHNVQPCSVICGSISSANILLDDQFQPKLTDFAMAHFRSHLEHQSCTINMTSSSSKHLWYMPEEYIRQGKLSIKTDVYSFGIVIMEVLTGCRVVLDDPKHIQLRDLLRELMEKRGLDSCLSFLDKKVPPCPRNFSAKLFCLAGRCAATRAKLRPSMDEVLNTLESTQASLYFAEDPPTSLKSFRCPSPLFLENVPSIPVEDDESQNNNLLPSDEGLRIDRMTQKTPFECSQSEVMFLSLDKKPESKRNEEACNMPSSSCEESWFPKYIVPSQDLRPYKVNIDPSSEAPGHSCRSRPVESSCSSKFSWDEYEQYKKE
Chain of Cyclin-dependent kinase-like 1 (Homo sapiens) (Q00532 whole entry, canonical isoform): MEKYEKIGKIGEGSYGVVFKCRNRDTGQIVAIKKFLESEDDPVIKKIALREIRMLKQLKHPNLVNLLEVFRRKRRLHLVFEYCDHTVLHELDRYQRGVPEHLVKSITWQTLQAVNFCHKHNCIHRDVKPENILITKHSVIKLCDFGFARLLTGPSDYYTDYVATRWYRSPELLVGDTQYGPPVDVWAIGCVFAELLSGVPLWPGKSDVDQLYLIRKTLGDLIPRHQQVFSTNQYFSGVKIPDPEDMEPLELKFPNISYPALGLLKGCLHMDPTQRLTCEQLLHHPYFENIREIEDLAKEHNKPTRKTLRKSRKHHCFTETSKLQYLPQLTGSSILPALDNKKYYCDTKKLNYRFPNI

CCc1ccccc1C(=O)Nc1n[nH]c2c(C)c(F)c(C3C(C#N)=C(C)N(C)C(C)=C3C#N)cc12 [BAY-3827]
inactive: residual activity [1] 89% | residual activity [2] 92% | residual activity [3] 100% | residual activity [4] 87% | residual activity [5] 62% | residual activity [6] 100% | residual activity [7] 72% | residual activity [8] 98% | residual activity [9] 92% | residual activity [10] 100% | residual activity [11] 100% | residual activity [12] 82% | residual activity [13] 100% | residual activity [14] 82% | residual activity [15] 88% | residual activity [16] 90% | inhibition [17] 9.23%

CC1=C(C#N)C(c2ccc3c(c2)c(NC(=O)c2ccccc2C)nn3C)C(C#N)=C(C)N1 [BAY-974]
inactive: residual activity [1] 91% | residual activity [2] 99% | residual activity [3] 74% | residual activity [4] 72% | residual activity [5] 97% | residual activity [6] 88% | residual activity [7] 100% | residual activity [8] 79% | residual activity [9] 100% | residual activity [10] 100% | residual activity [11] 92% | residual activity [12] 100% | residual activity [13] 73% | residual activity [14] 99% | residual activity [15] 80% | residual activity [16] 100% | inhibition [17] 2.21%
